The values that follow come from patent US10668134B2, “Dental pretreatment material and dental tissue regeneration kit” (National Center for Geriatrics and Gerontology, priority 2016, dated 2020).

Molecules are shown by their SMILES.

Assay [1] relates to post-pulpectomy root canal of a tooth of the canine. As to the kind of experiment: Dental pulp regeneration after pulpectomy, allogeneic transplantation of dental pulp stem cells with root canal filler containing ALK5 inhibitor or CCR3 antagonist. The assay is classed as in vivo, dog. From the text: For each tooth, the root canal was enlarged with #50-55 to the apex, and was washed alternately with a 5% sodium hypochlorite solution and a 3% hydrogen peroxide solution, followed by washing with physiologic saline. The root canal was completely dried with paper points, and hemorrhage was controlled. The root canal was completely closed with a temporary seal of cement and resin. After 7 to 14 days following the pulpectomy, the temporary seal was removed, and the root canal underwent alternate washing and with physiologic saline. Smearclean was then allowed to react for 2 minutes. The root canal was then further washed with physiologic saline, and dried. A root canal filler was prepared by suspending 1×10^6 allogenic dental pulp stem cells, which had been membrane-separated, in 40 μl of a scaffold (Koken Atelocollagen Implant, KOKEN CO., LTD.), and by suspending 3 μl of a 100 μg/ml G-CSF (NEUTROGIN, Chugai Pharmaceutical Co., Ltd.). Further, an ALK5 inhibitor (SB431542, 200 ng) was added to part of the root canal filler. A CCR3 antagonist (SB328437, 200 ng) was added to another part of the root canal filler. The root canal filler with the ALK5 inhibitor or the CCR3 antagonist was injected into associated root canal such that no air bubbles were involved. A hemostatic gelatin sponge (Spongel) was put on the root canal filler. The cavity was completely sealed with cement and resin. After 14 days and 60 days following the transplantation, the teeth were extracted. According to a common method, 5 μm paraffin sections of longitudinal cross section were prepared. The paraffin sections were then H-E stained to undergo morphological observation. Amounts of regenerated dental pulp of four sections were measured for each sample, and an average amount of three samples (14-day samples) or an average amount of four samples (60-day samples) was determined to be the amount of regenerated dental pulp of the respective sample. To analyze angiogenesis, the 60-day samples were immunostained with BS-1 lectin. To analyze neurite outgrowth, the 60-day samples were immunostained with PGP 9.5.

Assay [2] deals with Fifth-passage human periodontal membrane cells. Description: mRNA expression of CCL11, CCR3 and GDF11 in human periodontal membrane cells (real-time RT-PCR). To be noted: 5, 10 and 30 ng/μl added; after 32 hours. Format: cell-based. On the procedure:
Fifth-passage human periodontal membrane cells were plated in a DMEM containing 10% FBS in collagen-coated 35 mm dishes (IWAKI) at a density of 2×10^4 cells/ml. After 9 hours, an ALK5 inhibitor (SB431542) was added to final concentrations of 5 ng/μl, 10 ng/μl, and 30 ng/μl. Further, a CCR3 antagonist (SB328437) was added to final concentrations of 5 ng/μl, 10 ng/μl, and 30 ng/μl. After 32 hours, mRNA was extracted, and real-time RT-PCR was performed on CCL11, CCR3, and GDF11.

In assay [3] the test system is HUVECs (Human Umbilical Vein Endothelial Cells). As to the kind of experiment: Blood vessel-inducing capacity of culture supernatant of senescent dental pulp stem cells on HUVECs on matrigel. Format: cell-based. Particulars: after 5 hours, DPSC CM alone 5.9 ± 2.9 mm. On the procedure: (§1) Non-separated 22nd-passage human dental pulp stem cells were brought into a state of 50% confluence. The medium was replaced with a serum-free medium. After 24 hours, the culture conditioned medium was collected. The supernatant was concentrated approximately 40-fold using Amicon Ultra-15 Centrifugal Filter Unit with Ultracel-3 membrane (Millipore, Billerica, Mass.) with 3-kDa molecular cut. Proteinase inhibitors (Halt™ proteinase inhibitor cocktail EDTA-free, Thermo Scientific, Rockford, Ill., USA) was added. The mixture was dispended to be stored at −80° C. Protein content was measured using Bradford Ultra™ (Expedeon, Cambridge, UK).
HUVECs (Human Umbilical Vein Endothelial Cells) (clone 7F3415) (Lonza) were cultured with EGM 2 containing 10% FBS (Lonza). Thereafter, the culture supernatant (5 μg/ml proteins) prepared in 1 above was added to DMEM, as a blood vessel-inducing medium, containing 2% FBS, 5 μg/ml heparin (Lonza), 5 μg/ml ascorbic acid (Lonza), and 5 μg/ml hydrocortisone (Lonza). Further, an ALK5 inhibitor (SB431542, 10 ng/μl) was added to a part of the resultant mixture, and a CCR3 antagonist (SB328437, 5 ng/μl) was added to another part of the resultant mixture. […] Quantitative measurement was conducted, using Suite V3 software (Leica), on the length of a formed cord or tubular lumen.

The test system of assay [4] is TGW cells (human neuroblastoma cell line). As to the kind of experiment: Neurite outgrowth in TGW cells with culture conditioned medium of senescent dental pulp stem cells. Format: cell-based. To be noted: after 48 hours, DPSC CM alone 111.5 ± 14.1 μm. On the procedure:
as §1
The culture supernatant (5 μg/ml proteins) prepared in 1 above was added to TGW cells (human neuroblastoma cell line). Further, an ALK5 inhibitor (SB431542, 10 ng/μl) was added to a part of the resultant mixture, and a CCR3 antagonist (SB328437, 5 ng/μl) was added to another part of the resultant mixture. TGW cells to which only the culture supernatant was added was used as a negative control. […] Neurite outgrowth after 48 hours was observed and measured with an inverted microscope (Leica).

Assay [5] concerns Fourth-passage human dental pulp cells. Description: Migration promotion of dental pulp cells by culture supernatant of senescent dental pulp stem cells (TAXIscan-FL). The assay is classed as cell-based. Particulars: 1 μl DPSC CM containing 1 μl of 20 mg/ml compound as attractant; n=4; non 5.0 ± 1.0. As for the experimental part: as §1
Fourth-passage human dental pulp cells were plated in DMEM containing 10% FBS in 10 cm dishes (FALCON) at 2×10^4 cells/ml. After 48 hours, the cells were detached, and a real-time horizontal chemotaxis analysis was performed using TAXlscan-FL (Effector Cell Institute, Tokyo) to measure the migratory capacity. Specifically, channels optimized (8 μm) for the size of the cells were formed between a silicon plate having 6 μm pores and a glass plate, and 1 μl of treated dental pulp cells (10^5 cells/ml) was injected to one end portion of each of the channels (n=4). As a control, one of the channels received nothing at the opposite end portion. […] Based on the video images of migration, the number of migrating cells after 12 hours was measured.

Where [6] appears, read: canine of middle or advanced age, 200 ng in root canal filler, after 14 days, vs filler without.
Setting [7] is: canine of middle or advanced age, 200 ng in root canal filler, after 60 days, vs filler without.
Setting [8] is: canine of middle or advanced age, 200 ng, after 60 days.

In the case of `NC(=O)c1ccc(-c2nc(-c3ccc4c(c3)OCO4)c(-c3ccccn3)[nH]2)cc1` [ALK5 inhibitor, SB431542], the “amount of regenerated dental pulp tissue” value in assay [1] (setting [6]) was “significant increase”. Also, in assay [1] (setting [7]), the “amount of regenerated dental pulp tissue” value is listed as “significant increase”. For the same molecule, the “density of angiogenesis (BS-1 lectin)” value in assay [1] (setting [8]) is on record as “significant increase”. Besides, in assay [2], the “increase of expression of GDF11 mRNA” value amounted to 5 times and the “mRNA expression of CCL11” value is reported as “completely suppressed”. The “Length of New Blood Vessel” value in assay [3] (DPSC CM + 10 ng/μl) is recorded as 13.2 ± 2.6 mm. Besides, the “Neurite Outgrowth Length” value in assay [4] (DPSC CM + 10 ng/μl) is 2710.5 ± 1223.0 μm. Further, the “number of migrating cells after 12 hours, Average ± SD” value in assay [5] was 12.7 ± 2.1.

Regarding `COC(=O)[C@H](Cc1ccc([N+](=O)[O-])cc1)NC(=O)c1cccc2ccccc12` [CCR3 antagonist, SB328437], the “amount of regenerated dental pulp tissue” value is “significant increase” in assay [1] (setting [6]); “significant increase” in assay [1] (setting [7]); “did not cause any significant increase” in assay [1] (canine of young age, 200 ng, after 14 days). In addition, the “neurite outgrowth (PGP 9.5)” value in assay [1] (setting [8]) is “significant increase”. The “mRNA expression of CCL11” value in assay [2] was “completely suppressed”. For the same molecule, in assay [2], the “mRNA expression of CCR3” value was “completely suppressed”. In addition, the “Length of New Blood Vessel” value in assay [3] (DPSC CM + 5 ng/μl) was found to be 2.8 ± 0.3 mm. In assay [4] (DPSC CM + 5 ng/μl), the “Neurite Outgrowth Length” value is reported as 518.7 ± 126.5 μm. The “number of migrating cells after 12 hours, Average ± SD” value in assay [5] was 23.7 ± 5.1.
